According to ChEMBL document CHEMBL3091365, “Optimization of O3-acyl kojic acid derivatives as potent and selective human neutrophil elastase inhibitors” (J Med Chem, 2013):

Tests used:
[1] = molecular target: Urokinase-type plasminogen activator (Homo sapiens, UniProt P00749); assay: Inhibition of human urokinase using Z-Gly-Gly-Arg-AMC.HCl as substrate measured for 30 mins by spectrophotometry
[2] = molecular target: Prothrombin (Homo sapiens, UniProt P00734); assay: Inhibition of human thrombin using Z-Gly-Gly-Arg-AMC.HCl as substrate measured for 30 mins by spectrophotometry
[3] = molecular target: Kallikrein-1 (Homo sapiens, UniProt P06870); assay: Inhibition of human kallikrein using H-Pro-Phe-Arg-AMC acetate salt as substrate measured for 30 mins by spectrophotometry
Chain of Kallikrein-1 (P06870 whole entry): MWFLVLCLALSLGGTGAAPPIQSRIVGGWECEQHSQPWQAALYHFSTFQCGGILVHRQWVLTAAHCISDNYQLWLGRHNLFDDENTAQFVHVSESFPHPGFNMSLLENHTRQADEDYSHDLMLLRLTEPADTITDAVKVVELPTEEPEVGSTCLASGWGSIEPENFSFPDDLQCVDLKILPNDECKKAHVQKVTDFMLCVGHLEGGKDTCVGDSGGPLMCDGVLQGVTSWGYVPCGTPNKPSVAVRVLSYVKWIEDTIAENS

[4] = molecular target: T1, Cathepsin G (Homo sapiens, UniProt P08311); assay: Inhibition of human cathepsin G using Suc-Ala-Ala-Pro-Phe-p-nitroanilide as substrate incubated for 30 mins prior to substrate addition measured for 30 mins by spectrophotometry
T1 sequence (P08311 whole entry): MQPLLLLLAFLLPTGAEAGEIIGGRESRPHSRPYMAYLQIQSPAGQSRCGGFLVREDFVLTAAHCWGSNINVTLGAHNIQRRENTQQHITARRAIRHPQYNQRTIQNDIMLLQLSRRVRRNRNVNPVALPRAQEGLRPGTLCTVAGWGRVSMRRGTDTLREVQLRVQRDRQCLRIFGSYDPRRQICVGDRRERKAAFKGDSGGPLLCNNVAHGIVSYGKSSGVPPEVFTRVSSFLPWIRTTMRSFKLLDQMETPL

[5] = Stability of the compound in phosphate buffer at pH 7.4 at 100 uM by HPLC analysis; format: physicochemical; conditions: pH 7.4, 100 µM
[6] = Half life in Sprague-Dawley rat liver microsomes by HPLC analysis; format: ADME
[7] = molecular target: Pancreatic elastase (Sus scrofa, UniProt P08419+P00772); assay: Inhibition of pig pancreatic elastase using MeO-Suc-Ala-Ala-Pro-Val-AMC as substrate incubated for 30 mins prior to substrate addition measured for 30 mins by fluorescence assay; format: protein assay
[8] = tested on: Plasma; assay: Metabolic stability in human plasma by HPLC analysis; format: ADME, cell-free
[9] = Inhibition of human chymotrypsin using Suc-Ala-Ala-Pro-Phe-7-amino-4-methylcoumarin as substrate measured for 30 mins by spectrophotometry
[10] = molecular target: Trypsin (Homo sapiens, UniProt P07477+P07478+P35030); assay: Inhibition of human trypsin using Z-Gly-Gly-Arg-AMC.HCl as substrate measured for 30 mins by spectrophotometry; format: protein assay
[11] = tested on: HEK-293T; assay: Cytotoxicity against human HEK293T cells after 24 hrs by MTT assay; format: cell-based
[12] = tested on: NIH3T3; assay: cells; conditions: Mus musculus, NIH3T3, 24 h
Description: Cytotoxicity against mouse NIH/3T3 cells after 24 hrs by MTT assay

[13] = molecular target: T2, Myeloblastin (Homo sapiens, UniProt P24158); assay: Inhibition of human proteinase 3 using N-MeOSuc-Ala-Ala-Pro-Val-p-nitroanilide as substrate measured for 30 mins by spectrophotometry
T2 sequence (P24158 whole entry): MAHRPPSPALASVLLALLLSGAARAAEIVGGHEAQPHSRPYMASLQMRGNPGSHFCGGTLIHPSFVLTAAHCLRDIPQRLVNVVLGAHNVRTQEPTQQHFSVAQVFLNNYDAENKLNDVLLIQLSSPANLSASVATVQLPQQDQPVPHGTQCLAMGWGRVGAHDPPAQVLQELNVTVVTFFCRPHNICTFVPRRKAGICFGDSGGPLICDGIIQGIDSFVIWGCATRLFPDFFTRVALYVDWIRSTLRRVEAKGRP

[14] = Half life in human plasma by HPLC analysis; format: ADME, cell-free
[15] = molecular target: T3, Neutrophil elastase (Homo sapiens, UniProt P08246); assay: Inhibition of human neutrophil elastase using MeO-Suc-Ala-Ala-Pro-Val-AMC as substrate incubated for 30 mins prior to substrate addition measured for 30 mins by fluorescence assay
T3 sequence (P08246 whole entry): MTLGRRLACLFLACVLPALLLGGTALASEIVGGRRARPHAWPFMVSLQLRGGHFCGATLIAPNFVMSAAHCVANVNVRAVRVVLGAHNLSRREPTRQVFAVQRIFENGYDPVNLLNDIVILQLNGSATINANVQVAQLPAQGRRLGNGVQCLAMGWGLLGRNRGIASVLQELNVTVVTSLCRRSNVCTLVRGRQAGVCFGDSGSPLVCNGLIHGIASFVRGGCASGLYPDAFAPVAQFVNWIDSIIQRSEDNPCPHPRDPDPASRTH

IC50 [1]	IC50 [2]	IC50 [3]	IC50 [4]	Stability [5]	half-life [6]	IC50 [7]	Stability [8]	IC50 [9]	IC50 [10]	IC50 [13]	half-life [14]	IC50 [15]	SMILES	IC50 [11]	IC50 [12]
> 50 µM	8.4 µM	> 50 µM	19 µM										CC(C)(C)C(=O)Oc1cn(-c2ccccc2)c(CSc2nc3cc(C(=O)O)ccc3o2)cc1=O		
> 50 µM	> 50 µM	> 50 µM	> 100 µM	Stable									CC(C)(C)C(=O)Oc1coc(CSc2nc3cc(C(=O)O)ccc3o2)cc1=O		
> 2 µM	> 2 µM	> 2 µM	> 100 µM	Stable	19.9 min	> 50 µM	Stable	> 2 µM	> 2 µM	> 100 µM			CC(C)(C)C(=O)Oc1ccc(S(=O)(=O)Nc2ccccc2C(=O)NCC(=O)O)cc1	> 100 µM	> 100 µM
> 50 µM	> 50 µM	> 50 µM	> 100 µM	Stable	< 1 min	> 100 µM		> 50 µM	> 50 µM	5.9 µM	10.8 min	0.11 µM	CC(C)(C)C(=O)Oc1coc(CSc2nc3ccccc3s2)cc1=O	> 100 µM	> 100 µM
												0.96 µM	CC(C)(C)C(=O)Oc1cn(-c2ccccc2)c(CSc2nc3ccccc3s2)cc1=O		
				Stable									O=C(Oc1coc(CSc2nnc(NC(=O)C3CC3)s2)cc1=O)c1cccc(F)c1		
												0.28 µM	O=C(Oc1cn(-c2ccccc2)c(CSc2nc3ccccc3s2)cc1=O)c1ccccc1		
